ChEMBL document CHEMBL4138123, “Design, synthesis and biological evaluation of novel pyrazolochalcones as potential modulators of PI3K/Akt/mTOR pathway and inducers of apoptosis in breast cancer cells” (Eur J Med Chem, 2017)

What was measured:
A498 [1] = experiment: Cytotoxicity against human A498 cells assessed as cell growth at 0.01 uM after 48 hrs by sulforhodamine B assay relative to control; assay type: functional; details: A498, 48 h, read-out: Activity
Hs-578T = experiment: Cytotoxicity against human Hs 578T cells assessed as cell growth at 10 uM after 48 hrs by sulforhodamine B assay relative to control; assay type: functional; details: read-out: Activity
T47D = experiment: Cytotoxicity against human T47D cells assessed as cell growth at 1 uM after 48 hrs by sulforhodamine B assay relative to control; assay type: functional; details: read-out: Activity
SN12C = experiment: Cytotoxicity against human SN12C cells assessed as cell growth at 100 uM after 48 hrs by sulforhodamine B assay relative to control; assay type: functional; details: read-out: Activity
SK-MEL-5 = experiment: Cytotoxicity against human SK-MEL-5 cells assessed as cell growth at 10 uM after 48 hrs by sulforhodamine B assay relative to control; assay type: functional; details: SK-MEL-5, 48 h, read-out: Activity
U-251 = experiment: Cytotoxicity against human U251 cells assessed as cell growth at 0.01 uM after 48 hrs by sulforhodamine B assay relative to control; assay type: functional; details: U-251, 48 h, read-out: Activity
SNB-19 = experiment: Cytotoxicity against human SNB19 cells assessed as cell growth at 100 uM after 48 hrs by sulforhodamine B assay relative to control; assay type: functional; details: SNB-19, 48 h, read-out: Activity
NCI-H23 = experiment: Cytotoxicity against human NCI-H23 cells assessed as growth inhibition after 48 hrs by sulforhodamine B assay; assay type: functional; details: NCI-H23, 48 h; for CC50: read-out: LC50 (the source's name)
NCI-H460 = experiment: Cytotoxicity against human NCI-H460 cells assessed as cell growth at 10 uM after 48 hrs by sulforhodamine B assay relative to control; assay type: functional; details: NCI-H460, 48 h, read-out: Activity
A498 [2] = experiment: Cytotoxicity against human A498 cells assessed as cell growth at 1 uM after 48 hrs by sulforhodamine B assay relative to control; assay type: functional; details: A498, 48 h, read-out: Activity
TK-10 = experiment: Cytotoxicity against human TK10 cells assessed as growth inhibition after 48 hrs by sulforhodamine B assay; assay type: functional; details: TK-10, 48 h
IGROV-1 = experiment: Cytotoxicity against human IGROV1 cells assessed as cell growth at 10 uM after 48 hrs by sulforhodamine B assay relative to control; assay type: functional; details: IGROV-1, 48 h, read-out: Activity
DU-145 = experiment: Cytotoxicity against human DU145 cells assessed as cell growth at 0.1 uM after 48 hrs by sulforhodamine B assay relative to control; assay type: functional; details: DU-145, 48 h, read-out: Activity
MDA-MB-231 = experiment: Cytotoxicity against human MDA-MB-231 cells assessed as cell growth at 100 uM after 48 hrs by sulforhodamine B assay relative to control; assay type: functional; details: MDA-MB-231, 48 h, read-out: Activity
SK-MEL-28 = experiment: Cytotoxicity against human SK-MEL-28 cells assessed as cell growth at 1 uM after 48 hrs by sulforhodamine B assay relative to control; assay type: functional; details: SK-MEL-28, 48 h, read-out: Activity
SR = experiment: Cytotoxicity against human SR cells assessed as cell growth at 10 uM after 48 hrs by sulforhodamine B assay relative to control; assay type: functional; details: read-out: Activity
HCC 2998 = experiment: Cytotoxicity against human HCC2998 cells assessed as cell growth at 0.1 uM after 48 hrs by sulforhodamine B assay relative to control; assay type: functional; details: HCC 2998, 48 h, read-out: Activity
MDA-MB-468 = experiment: Cytotoxicity against human MDA-MB-468 cells assessed as cell growth at 100 uM after 48 hrs by sulforhodamine B assay relative to control; assay type: functional; details: MDA-MB-468, 48 h, read-out: Activity
OVCAR-5 = experiment: Cytotoxicity against human OVCAR5 cells assessed as cell growth at 1 uM after 48 hrs by sulforhodamine B assay relative to control; assay type: functional; details: OVCAR-5, 48 h, read-out: Activity
OVCAR-8 = experiment: Cytotoxicity against human OVCAR8 cells assessed as growth inhibition after 48 hrs by sulforhodamine B assay; assay type: functional; details: OVCAR-8, 48 h
MCF7 = experiment: Cytotoxicity against human MCF7 cells assessed as growth inhibition after 48 hrs by MTT assay; assay type: functional, cell-based; details: MCF7, 48 h
RPMI-8226 [3] = experiment: Cytotoxicity against human RPMI8226 cells assessed as cell growth at 1 uM after 48 hrs by sulforhodamine B assay relative to control; assay type: functional; details: RPMI-8226, 48 h, read-out: Activity
NCI-H522 = experiment: Cytotoxicity against human NCI-H522 cells assessed as cell growth at 100 uM after 48 hrs by sulforhodamine B assay relative to control; assay type: functional; details: NCI-H522, 48 h, read-out: Activity
NCI-H226 = experiment: Cytotoxicity against human NCI-H226 cells assessed as cell growth at 0.1 uM after 48 hrs by sulforhodamine B assay relative to control; assay type: functional; details: NCI-H226, 48 h, read-out: Activity
SF-539 = experiment: Cytotoxicity against human SF539 cells assessed as cell growth at 100 uM after 48 hrs by sulforhodamine B assay relative to control; assay type: functional; details: SF-539, 48 h, read-out: Activity
UACC-257 [4] = experiment: Cytotoxicity against human UACC257 cells assessed as cell growth at 0.01 uM after 48 hrs by sulforhodamine B assay relative to control; assay type: functional; details: UACC-257, 48 h, read-out: Activity
HT-29 = experiment: Cytotoxicity against human HT-29 cells assessed as cell growth at 0.01 uM after 48 hrs by sulforhodamine B assay relative to control; assay type: functional; details: HT-29, 48 h, read-out: Activity
BT-549 [5] = experiment: Cytotoxicity against human BT549 cells assessed as cell growth at 100 uM after 48 hrs by sulforhodamine B assay relative to control; assay type: functional; details: BT-549, 48 h, read-out: Activity
OVCAR-3 = experiment: Cytotoxicity against human OVCAR3 cells assessed as cell growth at 0.1 uM after 48 hrs by sulforhodamine B assay relative to control; assay type: functional; details: OVCAR-3, 48 h, read-out: Activity
HOP-62 = experiment: Cytotoxicity against human HOP62 cells assessed as cell growth at 0.1 uM after 48 hrs by sulforhodamine B assay relative to control; assay type: functional; details: HOP-62, 48 h, read-out: Activity
MOLT-4 = experiment: Cytotoxicity against human MOLT4 cells assessed as cell growth at 1 uM after 48 hrs by sulforhodamine B assay relative to control; assay type: functional; details: MOLT-4, 48 h, read-out: Activity
CCRF-CEM = experiment: Cytotoxicity against human CCRF-CEM cells assessed as cell growth at 10 uM after 48 hrs by sulforhodamine B assay relative to control; assay type: functional; details: read-out: Activity
UACC-257 [6] = experiment: Cytotoxicity against human UACC257 cells assessed as cell growth at 10 uM after 48 hrs by sulforhodamine B assay relative to control; assay type: functional; details: UACC-257, 48 h, read-out: Activity
RPMI-8226 [7] = experiment: Cytotoxicity against human RPMI8226 cells assessed as cell growth at 100 uM after 48 hrs by sulforhodamine B assay relative to control; assay type: functional; details: RPMI-8226, 48 h, read-out: Activity
BT-549 [8] = experiment: Cytotoxicity against human BT549 cells assessed as cell growth at 0.01 uM after 48 hrs by sulforhodamine B assay relative to control; assay type: functional; details: BT-549, 48 h, read-out: Activity

`COc1ccc(-c2cc(/C=C/C(=O)c3ccc(N)cc3)[nH]n2)cc1OC` gave a growth at 0.01 µM (A498 [1]) of 95%, a growth at 10 µM (Hs-578T) of 40% and a growth at 1 µM (T47D) of 87%. The growth at 100 µM (SN12C) was -90%, the growth at 10 µM (SK-MEL-5) was 6% and the growth at 0.01 µM (U-251) was 95%. For the same molecule, the growth at 100 µM (SNB-19) was -91%, the GI50 (NCI-H23) was 4.21 µM and the TGI (NCI-H23) was 19.3 µM. The CC50 (NCI-H23) was 95.6 µM, the growth at 10 µM (NCI-H460) was -49% and the growth at 1 µM (A498 [2]) was 89%. For the same molecule, the GI50 (TK-10) was 1.09 µM, the LC50 (TK-10) was 48.7 µM and the TGI (TK-10) was 23 µM. For the same molecule, the growth at 10 µM (IGROV-1) was 24%, the growth at 0.1 µM (DU-145) was 110% and the growth at 100 µM (MDA-MB-231) was -77%. It also gave a growth at 1 µM (SK-MEL-28) of 89%, a growth at 10 µM (SR) of -13% and a growth at 0.1 µM (HCC 2998) of 100%. The growth at 100 µM (MDA-MB-468) was -73%, the growth at 1 µM (OVCAR-5) was 94% and the GI50 (OVCAR-8) was 2.95 µM. It also gave an LC50 (OVCAR-8) of 39 µM, a TGI (OVCAR-8) of 10.5 µM and an IC50 (MCF7) of 1.9 µM. For the same molecule, the growth at 1 µM (RPMI-8226 [3]) was 59%, the growth at 100 µM (NCI-H522) was -92% and the growth at 0.1 µM (NCI-H226) was 91%. The growth at 100 µM (SF-539) was -92%, the growth at 0.01 µM (UACC-257 [4]) was 90% and the growth at 0.01 µM (HT-29) was 98%. The growth at 100 µM (BT-549 [5]) was -98%, the growth at 0.1 µM (OVCAR-3) was 108% and the growth at 0.1 µM (HOP-62) was 91%. For the same molecule, the growth at 1 µM (MOLT-4) was 93%, the growth at 10 µM (CCRF-CEM) was -8% and the growth at 10 µM (UACC-257 [6]) was 39%. For the same molecule, the growth at 100 µM (RPMI-8226 [7]) was -40% and the growth at 0.01 µM (BT-549 [8]) was 84%.
In the case of `COc1ccc(-c2cc(/C=C/C(=O)c3cc(OC)c(OC)c(OC)c3)[nH]n2)cc1OC`, the growth at 0.01 µM (A498 [1]) is reported as 99%, the growth at 10 µM (Hs-578T) is reported as 9% and the growth at 1 µM (T47D) is reported as 51%. It also gave a growth at 100 µM (SN12C) of -67%, a growth at 10 µM (SK-MEL-5) of -99% and a growth at 0.01 µM (U-251) of 99%. It also gave a growth at 100 µM (SNB-19) of -77%, a GI50 (NCI-H23) of 1.97 µM and a TGI (NCI-H23) of 4.91 µM. It also gave a CC50 (NCI-H23) greater than 100 µM, a growth at 10 µM (NCI-H460) of -41% and a growth at 1 µM (A498 [2]) of 65%. The GI50 (TK-10) was 3.27 µM, the LC50 (TK-10) was 36.9 µM and the TGI (TK-10) was 11.8 µM. It also gave a growth at 10 µM (IGROV-1) of -7%, a growth at 0.1 µM (DU-145) of 103% and a growth at 100 µM (MDA-MB-231) of -71%. For the same molecule, the growth at 1 µM (SK-MEL-28) was 89%, the growth at 10 µM (SR) was -10% and the growth at 0.1 µM (HCC 2998) was 100%. For the same molecule, the growth at 100 µM (MDA-MB-468) was -58%, the growth at 1 µM (OVCAR-5) was 81% and the GI50 (OVCAR-8) was 2.55 µM. It also gave an LC50 (OVCAR-8) of 42.1 µM, a TGI (OVCAR-8) of 11.7 µM and an IC50 (MCF7) of 1.1 µM. For the same molecule, the growth at 1 µM (RPMI-8226 [3]) was 11%, the growth at 100 µM (NCI-H522) was -90% and the growth at 0.1 µM (NCI-H226) was 90%. The growth at 100 µM (SF-539) was -87%, the growth at 0.01 µM (UACC-257 [4]) was 96% and the growth at 0.01 µM (HT-29) was 101%. For the same molecule, the growth at 100 µM (BT-549 [5]) was -93%, the growth at 0.1 µM (OVCAR-3) was 100% and the growth at 0.1 µM (HOP-62) was 80%. It also gave a growth at 1 µM (MOLT-4) of 69%, a growth at 10 µM (CCRF-CEM) of -15% and a growth at 10 µM (UACC-257 [6]) of -64%. It also gave a growth at 100 µM (RPMI-8226 [7]) of -31% and a growth at 0.01 µM (BT-549 [8]) of 96%.
